Experimental findings from US20250134907A1, “FUSED DIAZEPINES AS AGONISTS OF THE INSULIN-LIKE 3 (INSL3) PEPTIDE RECEPTOR RXFP2 AND METHODS OF USE THEREOF” (The United States of America,as represented by the …, priority 2022, published 2025) are described below.

The test system of data set [1] is HEK293T cells. As to the kind of experiment: CellTiter-Glo cytotoxicity assay in HEK293T cells. Format: cell-based, human. The settings on record: 24 h, 25 μM and 8.3 μM. How it is done: Cytotoxicity induced by the compounds in HEK293T cells and primary human calvarial osteoblasts (HCO) (ScienCell Research Laboratories, San Diego, CA) were tested using the […]-GLO™ Luminescent Cell Viability Assay (Promega, Madison, WI). This is a luminescence-based assay that determines viable cells by measuring cellular adenosine triphosphate (ATP) production. The luciferase enzyme requires ATP to catalyze the conversion of beetle luciferin to oxyluciferin and light. Thus, luciferase activity is proportional to ATP accumulation in the cells. For this assay, 96-well flat-bottom opaque plates seeded with HEK293T cells at 5,000 cells/well and HCO cells at 3,000 cells/well in 100 μL/well of growth medium (DMEM, 10% FBS, 1× Penicillin/Streptomycin). After incubating overnight at 37° C., 5% CO2 to allow attachment, cells were treated with 1 μL/well of compound (25-0.1 μM) or DMSO vehicle and incubated an additional 24 hours. Then cells were equilibrated for 30 minutes at room temperature and 100 μL/well of […]-GLO™ Reagent was added. Plates were placed on an orbital shaker for 2 minutes and incubated at room temperature for 10 minutes to stabilize the luminescent signal, which was read immediately after on a CLARIOstar plate reader (BMG Labtech, Germany). […] The HEK293T results represent the means±SEM of 3 technical replicates. The HCO results represent the means±SEM of 3 independent experiments.
On the technique in general: ATP-based viability assays read luminescence as a measure of living cells.

Data set [2] relates to gubernaculum of female embryos. As to the kind of experiment: Gubernaculum development in female embryos of treated pregnant mice. Format: in vivo, C57BL/6J mice. The note with it: 30 mg/kg intraperitoneal to pregnant females, embryonic day 12.5 to 17.5. An excerpt: The role of INSL3 and RXFP2 in gubernaculum development for the initial transabdominal descent of the testis during embryogenesis has been widely characterized in Insl3^-/- and Rxfp2^-/- mouse models of cryptorchidism. […] The gubernaculum is composed of the gubernacular bulb and cord, and it has begun invagination into the abdominal wall in preparation for the inguinoscrotal stage of testicular descent, which will finalize after birth. […] The hypothesis for our experiment is that by injecting pregnant females with the RXFP2 agonists during this embryonic development window, gubemaculum development could be induced in female embryos, which has been previously shown in female embryos overexpressing INSL3. […] For this assay, whole embryos were fixed in 10% formaldehyde for 24 hours. Afterwards, embryos were washed twice with PBS for 1 hour, followed by 3 consecutive washes with increasing concentrations of ethanol (30%, 50% and 70%) for 30 minutes. Fixed embryos were prepared for histology using an automatic tissue processor (Leica TP1020, Leica Biosystems, Germany), embedded in paraffin wax, and 5-7 μm sagittal serial sections were cut using an automated rotary microtome (Leica RM2255, Leica Biosystems, Germany). […] At least 4 embryos were analyzed per treatment group.

Molecules are shown by their SMILES.

On to `O=C1Nc2ccc(-c3cc(C(F)(F)F)cc(C(F)(F)F)c3)cc2C(=O)N2CCN(C(=O)COc3ccc(OC(F)(F)F)cc3Br)C[C@@H]12` [Example 158, (S)-8-(3,5-Bis(trifluoromethyl)phenyl)-2-(2-(2-bromo-4-(trifluoromethoxy)phenoxy)acetyl)-1,3,4,12a-tetrahydrobenzo[e]pyrazino[1,2-a][1,4]diazepine-6,12 (2H, 11H)-dione], for which the cytotoxicity entry in data set [1] was “some toxicity”. In addition, the “gubernaculum morphology in embryonic day 18.5 female embryos” value in data set [2] was “male-like invagination of the gubemaculum”.
